This is an account of results in patent US12605407B2, “Methods to induce terminal differentiation in stem cells by interfering with DNA replication, methods of inducing pancreatic differentiation, and differentiated cells obtained thereof” (priority 2018, dated 2026).

The subject of data set [1] is pancreatic progenitor cells. The data set is described as follows: TUNEL staining for apoptosis and absolute cell numbers. The format is cell-based. The source says: To determine whether the increased percentage of beta cells was due to cell death of proliferating progenitors or due to increased differentiation from pancreatic progenitor cells, absolute cell numbers and cell death were quantified. Cells at day 17 and day 27 with and without APH treatment were stained for TUNEL. […] Therefore, the increased percentage of C-peptide positive cells was due to the increased differentiation, not the elimination of non-C-peptide positive cells from day 15 to day 20. After day 20, APH maintained the purity of beta cell clusters by preventing the growth of non-beta cells.

A further data set has as its system NSG mice. The data set is described as follows: Graft growth by luciferase reporter in vivo imaging, cyst formation and graft sections. As for the experimental part: 8-10 weeks old male immuno-compromised mice (NOD.Cg-Prkdcscid Il2rgtm1Wj1/SzJ (NSG) from Jackson laboratories, Cat. No. 005557) were used for transplantation. For intra leg muscle transplantation, 1-2 million cells were collected and settled in tube with 50 μl Matrigel. All animal protocols were approved by the Institutional Animal Care and Use Committee in Columbia University.
A major obstacle for the therapeutic translation of stem cell products is the formation of growths, in the form of a teratoma or of a cyst. To determine growth potential of the grafted cells, growth was evaluated by monitoring the graft with a luciferase reporter using in vivo imaging. Mice were transplanted with 1-2 million APH treated cells or untreated cells. After 2 weeks of transplantation, the graft size of APH mice was small, while controls were modestly larger (FIG. 8A). […] The different growth trend of grafted cells between control and APH treated cells was evident in the bioluminescence intensity (FIG. 8C). At 22 weeks of engraftment, the size of graft in APH group was an average of 2.6-fold larger than that of 2 weeks compare to the control group which had 53.1-fold increase (FIG. 8D). Graft growth occurred in controls even in cultures with very high differentiation efficiency (greater than 60%). The increase of graft size was slower in the 3 mice transplanted with control cells with high differentiation efficiency but cystic structure still formed in three out of the three (3/3) mice (FIG. 8C, FIG. 8E).
The grafts were isolated from mice and frozen sectioned for examination. […] In control mice, the graft developed several large cystic structures and contained fewer C-peptide positive cells (FIG. 8G).
In general terms: In a reporter assay the amount or activity of a reporter protein is the signal.

In data set [2] the test system is iPSC lines 1018E and 1023A. As to the kind of experiment: Beta cell differentiation in iPSC lines with different differentiation potentials, C-peptide positive cells. The format is cell-based, human. The procedure:
Human pluripotent stem cells were cultured and maintained in feeder-free plates with stemflex medium as described. Three cell lines were involved in this study as shown in Table 2: MEL1 is human embryonic stem cell line; 1023A is a human induced pluripotent stem cell line reprogrammed from a skin fibroblast biopsied of a healthy control; and 1018E is a human induced pluripotent stem cell line reprogrammed from a skin fibroblast biopsied from a type 1 diabetes patient. All human subjects research was reviewed and approved by the Columbia University Institutional Review Board, and the Columbia University Embryonic Stem Cell Committee.
Beta cells differentiated from human pluripotent stem cell lines as described in Example 2 (Sui et al., 2018b). Indicated compounds that function as cell cycle inhibitors were added individually from day 15 to day 27 with concentration listed below:
The beta cell clusters were dissociated using TrypLE™ Express into single cells. Cells were fixed with 4% PFA for 10 min and followed by permeabilization at −20° C. with cold methanol for 10 min. […] The cells were filtered with BD Falcon 12×75 mm tube with cell strainer cap (Cat. No. 352235, BD) and subsequently analyzed by flow cytometer. Data were analyzed using Flowjo software. […]

The test system of data set [3] is stem cell derived beta cells. As to the kind of experiment: Stability of beta cell identity in long-term culture after removal of compound at day 27. The format is cell-based, human. The procedure:
The beta cell clusters were dissociated using TrypLE™ Express into single cells. Cells were fixed with 4% PFA for 10 min and followed by permeabilization at −20° C. with cold methanol for 10 min. Primary antibodies were added at a dilution of 1:100 in autoMACs Rinsing Solution (Cat. No. 130-091-222, Miltenyi Biotec) containing 0.5% BSA at 4° C. for 1 hour. Secondary antibodies were added at a dilution of 1:500 at room temperature for 1 hour. The cells were filtered with BD Falcon 12×75 mm tube with cell strainer cap (Cat. No. 352235, BD) and subsequently analyzed by flow cytometer. Data were analyzed using Flowjo software. Negative controls were performed by only adding secondary antibodies.
With APH, a high proportion of cells in the islet-like clusters were positive for C-peptide and NKX6.1, a transcription factor for maintaining the beta cell identity and functional maturation (Schaffer et al., 2013). […] Beta cells were cultured for additional 7 days until about day 34 and 30 days until about day 60 upon removal of these compounds at day 27. […] In contrast, in APH treated cells, there was no decrease in C-peptide or NKX6.1 on day 34 (FIG. 5A). […] After further culturing of the cells for extra 30 days, very few of cells in control group remained GFP expression and were positive for C-peptide.
The ability of other DNA replication inhibitors to stabilize the beta cell identity was investigated. The expressions of GFP were maintained after releasing cells from these inhibitors for 7 days until day 34. With additional 30 days of culture, the expressions of GFP were reduced in all conditions at certain levels, but the cells treated with Cis and Eto expressed higher GFP than the cells treated with APH compared to the other conditions (FIG. 5E, FIG. 5F).

Setting [4] is: isolated grafts, frozen sections.

SMILES strings stand for the structures.

As to `C[C@@]1(CO)[C@H](O)CC[C@@]2(C)[C@H]1CC[C@H]1C[C@@H]3C[C@@]12CC[C@]3(O)CO` [APH, Aphidicolin], the “cell apoptosis, percentage of TUNEL positive cells” value in data set [1] (day 17 and day 27, early and late stage of APH treatment) is recorded as “No significant increase”. In data set [1] (day 20), the “number of total cells compared to control group” value is recorded as “comparable” and the “percentage of C-peptide positive cells compared to control” value is “significantly increased”. Further, the graft size entry in the data set with NSG mice (2 weeks of transplantation, 1-2 million APH treated cells) is “small”. Moreover, in the data set on NSG mice (22 weeks of engraftment), the “size of graft relative to 2 weeks, average (bioluminescence)” value came to 2.6 fold. The “graft size relative to graft at 2 weeks” value with NSG mice (eleven weeks later (13 weeks post transplantation)) was “remained the similar size”. Also, the “cysts in mice grafted with APH treated cells” value in the data set on NSG mice (four out of the four (4/4) mice) is “No cysts”. For the same compound, in the data set with NSG mice (setting [4]), the “MAFA staining of insulin expressing beta cells in graft” value is listed as “positive for MAFA” and the graft composition entry was “islet like structures”. Further, the “percentage of C-peptide positive cells” value in data set [2] (both cell lines 1018E and 1023A, after APH treatment versus control) is on record as “significantly upregulated”. Moreover, the “average percentage of C-peptide positive cells” value in data set [2] (cell line 1018E (differentiates poorly), after APH treatment) worked out at 38%. Also, the “percentage of C-peptide positive cells, and C-peptide and NKX6.1 double positive cells, relative to day 27 before releasing” value in data set [3] (after 7 days of releasing cells from APH (day 34)) is recorded as “comparable”. Also, in data set [3] (day 34, APH removed on day 27), the “C-peptide or NKX6.1” value was “no decrease”. In data set [3] (day 60), the “number of GFP and C-peptide positive cells compared to day 27 before removal” value is recorded as “decreased”. Moreover, the “percentage of C-peptide positive cells” value in data set [3] (day 60, APH treatment days 15-27) is “about 34%”.
